Activity calls are given as the source filed them. The calls are words filed in the database; no cut-off is given here.
Tests used:
SiHa [1] = experiment: Cytotoxicity against human SiHa cells assessed as cell death after 24 hrs by MTT assay; assay type: functional; settings: read-out: LC50 (the source's name)
SiHa [2] = experiment: Cytotoxicity against human SiHa cells assessed as cell death after 48 hrs by MTT assay; assay type: functional; settings: read-out: LC50 (the source's name)
MCF7 [3] = experiment: Cytotoxicity against human MCF7 cells assessed as cell death after 24 hrs by MTT assay; assay type: functional; settings: MCF7, 24 h, read-out: LC50 (the source's name)
HEK-293T [4] = experiment: Induction of apoptosis in HEK293T cells assessed as reduction in PARP level at LC50 after 24 hrs by Western blot analysis; assay type: functional, cell-based; settings: Homo sapiens
HEK-293T [5] = experiment: Induction of DNA damage in HEK293T cells assessed as increase in comet length at LC50 after 24 hrs by Comet assay relative to untreated control; assay type: functional, cell-based; settings: Homo sapiens
HeLa [6] = experiment: Cytotoxicity against human HeLa cells assessed as cell death after 24 hrs by MTT assay; assay type: functional; settings: read-out: LC50 (the source's name)
HEK-293T [7] = experiment: Induction of apoptosis in HEK293T cells assessed as activation of caspase 3 at LC50 after 24 hrs by immunocytochemical analysis; assay type: functional, cell-based; settings: Homo sapiens
HEK-293T [8] = experiment: Induction of apoptosis in HEK293T cells assessed as increase in p53 expression at LC50 after 24 hrs by Western blot analysis; assay type: functional, cell-based; settings: Homo sapiens
HEK-293T [9] = experiment: Cytotoxicity against human HEK293T cells assessed as cell death after 24 hrs by MTT assay; assay type: functional; settings: read-out: LC50 (the source's name)
HEK-293T [10] = experiment: Cytotoxicity against human HEK293T cells assessed as cell death by MTT assay; assay type: functional; settings: read-out: LC50 (the source's name)
HEK-293T [11] = experiment: Cytotoxicity against human HEK293T cells assessed as cell death after 48 hrs by MTT assay; assay type: functional; settings: read-out: LC50 (the source's name)
HEK-293T [12] = experiment: Induction of apoptosis in HEK293T cells assessed as apoptotic nuclei at LC50 after 24 hrs by DAPI staining-based fluorescent microscopy; assay type: functional, cell-based; settings: Homo sapiens
[13] = Cytotoxicity against African green monkey Vero cells assessed as cell death by MTT assay; assay type: cell-based; settings: chlorocebus sabaeus, read-out: LC50 (the source's name)
HEK-293T [14] = experiment: Induction of apoptosis in HEK293T cells assessed as chromatin condensation and nuclear fragmentation at LC50 after 24 hrs by DAPI staining-based fluorescent microscopy; assay type: functional, cell-based; settings: Homo sapiens
HEK-293T [15] = experiment: Induction of chromosomal damage in HEK293T cells assessed as micronuclei formation at LC50 after 24 hrs by cytokinesis-block micronucleus assay relative to untreated control; assay type: functional, cell-based; settings: Homo sapiens
MCF7 [16] = experiment: Cytotoxicity against human MCF7 cells assessed as cell death after 48 hrs by MTT assay; assay type: functional; settings: MCF7, 48 h, read-out: LC50 (the source's name)
HeLa [17] = experiment: Cytotoxicity against human HeLa cells assessed as cell death after 48 hrs by MTT assay; assay type: functional; settings: read-out: LC50 (the source's name)
Tubulin = experiment: Inhibition of tubulin polymerization in HEK293T cell lysate after 15 mins by spectrophotometry; assay type: cell-free, Homo sapiens; settings: hek-293t
HEK-293T [18] = experiment: Induction of cell cycle arrest in HEK293T cells assessed as cells accumulation at G2/M phase at LC50 after 24 hrs by PI staining-based FACS scan flow cytometry (reference value: 22.2 +/- 1.5%); assay type: functional, Homo sapiens
HEK293 = experiment: Inhibition of anchorage-dependent HEK293T cell migration at LC50 after 6 to 24 hrs by wound healing assay; assay type: functional, cell-based; settings: Homo sapiens
HEK-293T [19] = experiment: Cytotoxicity against human HEK293T cells assessed as inhibition of colony formation at LC50 after 24 hrs by crystal violet staining based clonogenic cell survival assay; assay type: functional
Tubulin (Homo sapiens) = Tubulin (Homo sapiens) (UniProt P68371+Q9H4B7+P0DPH7+P68366+Q13509+Q71U36+P04350+Q3ZCM7+P07437+P68363+Q9BQE3+Q6PEY2+Q13885+Q9BVA1+Q9BUF5); experiment: Inhibition of tubulin assembly in HEK293T cells assessed as formation of abnormal mitotic spindles at LC50 after 24 hrs by immunofluorescence based confocal microscopy; assay type: cell-based; settings: HEK-293T

COc1ccc(/C=C\c2cc(OC)c(OC)c(OC)c2)cc1O [COMBRETASTATIN A4]
CC50 (SiHa [1]): 0.6 µM | CC50 (SiHa [2]): 0.2 µM | CC50 (MCF7 [3]): 7 µM | Activity (HEK-293T [4]): Active | Activity (HEK-293T [5]): Active | CC50 (HeLa [6]): 6 µM | Activity (HEK-293T [7]): Active | Activity (HEK-293T [8]): Active | CC50 (HEK-293T [9]): 8 µM | CC50 (HEK-293T [10]): 8 µM | CC50 (HEK-293T [11]): 0.2 µM | Activity (HEK-293T [12]): Active | CC50 [13]: 11 µM | Activity (HEK-293T [14]): Active | Activity (HEK-293T [15]): Active | CC50 (MCF7 [16]): 2 µM | CC50 (HeLa [17]): 0.8 µM

COc1cc(-c2nc3cnccn3c2Nc2cc(OC)c(OC)c(OC)c2)cc(OC)c1O
CC50 (HEK-293T [10]): 34 µM | CC50 [13]: 62 µM | IC50 (Tubulin): 34 µM

COc1ccc(Nc2c(-c3ccc(F)cc3)nc3cnccn23)cc1
CC50 (HEK-293T [10]): 56 µM | CC50 [13]: 72 µM | IC50 (Tubulin): 44 µM

COc1ccc(-c2nc3cc(C)ccn3c2Nc2cc(OC)c(OC)c(OC)c2)cc1O
CC50 (SiHa [1]): 4 µM | CC50 (SiHa [2]): 1.5 µM | CC50 (MCF7 [3]): 15 µM | Activity (HEK-293T [4]): Active | Activity (HEK-293T [5]): Active | CC50 (HeLa [6]): 15 µM | Activity (HEK-293T [7]): Active | Activity (HEK-293T [18]): 36.6% | inhibition (HEK293): Active | Activity (HEK-293T [8]): Active | CC50 (HEK-293T [9]): 8 µM | CC50 (HEK-293T [10]): 8 µM | CC50 (HEK-293T [11]): 3 µM | Activity (HEK-293T [12]): Active | CC50 [13]: 48 µM | Activity (HEK-293T [14]): Active | Activity (HEK-293T [15]): Active | CC50 (MCF7 [16]): 10 µM | inhibition (HEK-293T [19]): Active | CC50 (HeLa [17]): 7 µM | IC50 (Tubulin): 10 µM | inhibition (Tubulin (Homo sapiens)): Active

COc1cc(Nc2c(C3C=Nc4ccccc43)nc3cnccn23)cc(OC)c1OC (stereo not drawn)
CC50 (SiHa [1]): 7 µM | CC50 (SiHa [2]): 3 µM | CC50 (MCF7 [3]): 18 µM | Activity (HEK-293T [4]): Active | Activity (HEK-293T [5]): Active | CC50 (HeLa [6]): 17 µM | Activity (HEK-293T [7]): Active | Activity (HEK-293T [18]): 87.4% | inhibition (HEK293): Active | Activity (HEK-293T [8]): Active | CC50 (HEK-293T [9]): 12 µM | CC50 (HEK-293T [10]): 12 µM | CC50 (HEK-293T [11]): 3 µM | Activity (HEK-293T [12]): Active | CC50 [13]: 70 µM | Activity (HEK-293T [14]): Active | Activity (HEK-293T [15]): Active | CC50 (MCF7 [16]): 6 µM | inhibition (HEK-293T [19]): Active | CC50 (HeLa [17]): 9 µM | IC50 (Tubulin): 11 µM | inhibition (Tubulin (Homo sapiens)): Active

COc1ccc(Nc2c(-c3cccc(O)c3)nc3ccccn23)cc1
CC50 (HEK-293T [10]): 47 µM | CC50 [13]: 74 µM | IC50 (Tubulin): 42 µM

COc1ccc(-c2nc3cnccn3c2Nc2cc(OC)c(OC)c(OC)c2)cc1O
CC50 (HEK-293T [10]): 38 µM | CC50 [13]: 50 µM | IC50 (Tubulin): 38 µM

COc1ccc(-c2nc3sc4ccccc4n3c2Nc2cc(OC)c(OC)c(OC)c2)cc1O
CC50 (HEK-293T [10]): 22 µM | CC50 [13]: 26 µM | IC50 (Tubulin): 20 µM

COc1cc(Nc2c(-c3cccc(O)c3)nc3cnccn23)cc(OC)c1OC
CC50 (HEK-293T [10]): 42 µM | CC50 [13]: 63 µM | IC50 (Tubulin): 39 µM

COc1cc(Nc2c(-c3ccc(Cl)cc3)nc3cnccn23)cc(OC)c1OC
CC50 (HEK-293T [10]): 25 µM | CC50 [13]: 32 µM | IC50 (Tubulin): 32 µM

COc1ccc(Nc2c(-c3cc(OC)c(OC)c(OC)c3)nc3ccccn23)cc1
CC50 (SiHa [1]): 5 µM | CC50 (SiHa [2]): 2 µM | CC50 (MCF7 [3]): 8 µM | Activity (HEK-293T [4]): Active | Activity (HEK-293T [5]): Active | CC50 (HeLa [6]): 9 µM | Activity (HEK-293T [7]): Active | Activity (HEK-293T [18]): 40.7% | inhibition (HEK293): Active | Activity (HEK-293T [8]): Active | CC50 (HEK-293T [9]): 10 µM | CC50 (HEK-293T [10]): 10 µM | CC50 (HEK-293T [11]): 5 µM | Activity (HEK-293T [12]): Active | CC50 [13]: 65 µM | Activity (HEK-293T [14]): Active | Activity (HEK-293T [15]): Active | CC50 (MCF7 [16]): 5 µM | inhibition (HEK-293T [19]): Active | CC50 (HeLa [17]): 5 µM | IC50 (Tubulin): 14 µM | inhibition (Tubulin (Homo sapiens)): Active

COc1ccc(-c2nc3cnccn3c2Nc2cc(OC)c(OC)c(OC)c2)cc1
CC50 (HEK-293T [10]): 54 µM | CC50 [13]: 75 µM | IC50 (Tubulin): 40 µM

COc1cc(Nc2c(-c3ccc(F)cc3)nc3cnccn23)cc(OC)c1OC
CC50 (HEK-293T [10]): 36 µM | CC50 [13]: 48 µM | IC50 (Tubulin): 36 µM

COc1ccc(Nc2c(-c3ccc(OC)c(O)c3)nc3cnccn23)cc1
CC50 (HEK-293T [10]): 38 µM | CC50 [13]: 62 µM | IC50 (Tubulin): 38 µM

COc1ccc(Nc2c(-c3ccc(OC)cc3)nc3ccccn23)cc1
CC50 (HEK-293T [10]): 34 µM | CC50 [13]: 54 µM | IC50 (Tubulin): 34 µM

COc1ccc(Nc2c(-c3cccc(B(O)O)c3)nc3ccccn23)cc1
CC50 (HEK-293T [10]): 48 µM | CC50 [13]: 58 µM | IC50 (Tubulin): 48 µM

COc1ccc(-c2nc3ccccn3c2Nc2cc(OC)c(OC)c(OC)c2)cc1O
CC50 (SiHa [1]): 5 µM | CC50 (SiHa [2]): 2 µM | CC50 (MCF7 [3]): 20 µM | Activity (HEK-293T [4]): Active | Activity (HEK-293T [5]): Active | CC50 (HeLa [6]): 15 µM | Activity (HEK-293T [7]): Active | Activity (HEK-293T [18]): 33.6% | inhibition (HEK293): Active | Activity (HEK-293T [8]): Active | CC50 (HEK-293T [9]): 10 µM | CC50 (HEK-293T [10]): 10 µM | CC50 (HEK-293T [11]): 5 µM | Activity (HEK-293T [12]): Active | CC50 [13]: 50 µM | Activity (HEK-293T [14]): Active | Activity (HEK-293T [15]): Active | CC50 (MCF7 [16]): 12 µM | inhibition (HEK-293T [19]): Active | CC50 (HeLa [17]): 10 µM | IC50 (Tubulin): 12 µM | inhibition (Tubulin (Homo sapiens)): Active

COc1ccc(-c2nc3sccn3c2Nc2cc(OC)c(OC)c(OC)c2)cc1O
CC50 (HEK-293T [10]): 36 µM | CC50 [13]: 62 µM | IC50 (Tubulin): 36 µM

COc1ccc(Nc2c(-c3ccc(Cl)cc3)nc3cnccn23)cc1
CC50 (HEK-293T [10]): 34 µM | CC50 [13]: 45 µM | IC50 (Tubulin): 46 µM

COc1ccc(Nc2c(-c3ccc(OC)c(O)c3)nc3ncccn23)cc1
CC50 (HEK-293T [10]): 54 µM | CC50 [13]: 56 µM | IC50 (Tubulin): 54 µM

COc1ccc(-c2nc3cccc(C)n3c2Nc2cc(OC)c(OC)c(OC)c2)cc1O
CC50 (HEK-293T [10]): 63 µM | CC50 [13]: 74 µM | IC50 (Tubulin): 38 µM

From ChEMBL document CHEMBL3580592, “Combretastatin A-4 inspired novel 2-aryl-3-arylamino-imidazo-pyridines/pyrazines as tubulin polymerization inhibitors, antimitotic and anticancer agents” (Medchemcomm, 2014)
